Assay results from patent US11203591B2, “Substituted 6-azabenzimidazole compounds” (Gilead Sciences, Inc., priority 2018, dated 2021).

Target: human HPK1 (MAP4K1) (Homo sapiens (Human), UniProt Q92918)
Experiment: HPK1 IC50 Assay (TR-FRET peptide phosphorylation)
Format: biochemical
Description: The enzymatic activity of human HPK1 (MAP4K1) was monitored in a biochemical assay in the presence or absence of compounds and using a synthetic peptide substrate. An increase in phosphorylation of the peptide by HPK1 was indicative of its kinase activity.
Recombinant HPK1 kinase domain produced via baculovirus infection of insect cells was obtained from Proteros (Proteros Biostructures #PR-0322) and was pre-activated in the presence of 2 mM ATP (Sigma-Aldrich, cat #GE27-2056-01) and 2 mM magnesium chloride for 16 hours at 4° C. The protein reaction mixture was then loaded to a desalting column (Thermo Fisher Scientific, Cat #89889) to remove excess ATP. HPK1 was eluted with buffer containing 20 mM Tris (2-Amino-2-(hydroxymethyl)propane-1,3-diol) pH 8.0, 150 mM NaCl, 2 mM dithiothreitol and 5% glycerol, and was frozen at −80° C. for later use. HPK1 dual phosphorylation was confirmed by mass spectrometry.
Ten nanoliters of test compounds dissolved in DMSO at various concentrations were dispensed into a 384-well ProxiPlate (PerkinElmer #6008289). Five microliters of a solution of recombinant HPK1 diluted in HPK1 kinase assay buffer (50 mM BES [N,N-Bis(2-hydroxyethyl)-2-aminoethanesulfonic acid], pH 7.0; 10 mM magnesium chloride; 0.01% Triton X-100; 1 mM dithiothreitol; 0.01% bovine serum albumin; 0.1 mM sodium orthovanadate) was added to the compound-containing plate and was incubated for 15 minutes at 25° C. Five microliters of a mixture of ATP (Sigma-Aldrich #A6559) and peptide substrate STK S1 (Cisbio #61ST1BLC) diluted in HPK1 kinase assay buffer was then added to start the reaction. Final concentrations were 0.15 nM for HPK1, 10 μM for ATP, and 1 μM for the STK S1 peptide substrate. The reaction mixture was incubated at 25° C. for 3 hours and was stopped with the addition of 10 μl of an EDTA (Ethylenediaminetetraacetic acid)-containing detection buffer (Cisbio #62SDBRDF) supplemented with Europium cryptate-labeled anti-phospho-serine/threonine antibodies (Cisbio #62ST1PEJ) and XL665-labeled streptavidin (Cisbio #610SAXLG). The mixture was incubated for 16 hours at room temperature and peptide phosphorylation was measured by time-resolved fluorescence energy transfer (665 nm/620 nm) on an Envision plate reader (PerkinElmer).
Data in Table 1 were normalized based on positive (staurosporine) and negative (DMSO) controls. Least squares curve fittings were performed using a four-parameter variable slope nonlinear regression model. IC50 is defined as the concentration of compound required to inhibit 50% of maximum phosphorylation. IC50 values from multiple experiments were averaged by geometric mean and the standard deviation was calculated.

[1] = recombinant HPK1 kinase domain 0.15 nM, 10 μM ATP, 1 μM STK S1 peptide, geometric mean of multiple experiments
[2] = 0.15 nM HPK1, 10 μM ATP, 1 μM STK S1 peptide substrate, geometric mean

Sequence of human HPK1 (MAP4K1) (Q92918 17-274): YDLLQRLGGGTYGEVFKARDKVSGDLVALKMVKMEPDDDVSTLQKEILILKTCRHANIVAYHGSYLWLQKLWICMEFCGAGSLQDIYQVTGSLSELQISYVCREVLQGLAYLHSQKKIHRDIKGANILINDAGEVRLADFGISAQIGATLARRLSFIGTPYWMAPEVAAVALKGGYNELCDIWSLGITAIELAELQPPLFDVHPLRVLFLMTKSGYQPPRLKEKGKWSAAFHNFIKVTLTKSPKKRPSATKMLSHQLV

CC(C)n1cnc2cc(-c3cnc4c(c3)N(C3CC(C)(N5CCC6C[C@@H]6C5)C3)C(=O)C4(C)C)nc(Nc3cc(C(=O)NC4(CF)CC4)c(Cl)c(F)c3F)c21 (stereo partly drawn) [Example 258, 5-((6-(1-((1s,3s)-3-(3-azabicyclo[4.1.0]heptan-3-yl)-3-methylcyclobutyl)-3,3-dimethyl-2-oxo-2,3-dihydro-1H-pyrrolo[3,2-b]pyridin-6-yl)-3-isopropyl-3H-imidazo[4,5-c]pyridin-4-yl)amino)-2-chloro-3,4-difluoro-N-(1-(fluoromethyl)cyclopropyl)benzamide]
IC50 [1]: 0.09 nM

N-(1-(difluoromethyl)cyclopropyl)-5-((6-(3,3-dimethyl-1-((1s,3s)-3-methyl-3-(piperidin-1-yl)cyclobutyl)-2-oxo-2,3-dihydro-1H-pyrrolo[3,2-b]pyridin-6-yl)-3-isopropyl-3H-imidazo[4,5-c]pyridin-4-yl)amino)-2,3,4-trifluorobenzamide [Example 280]
IC50 [2]: 0.05 nM

CC(C)n1cnc2cc(-c3cnc4c(c3)N(C3CC(C)(N5CCC6C[C@@H]6C5)C3)C(=O)C4(C)C)nc(Nc3cc(C(=O)NC4(C(F)F)CC4)c(Cl)c(F)c3F)c21 (stereo partly drawn) [Example 261, 5-((6-(1-((1s,3s)-3-(3-azabicyclo[4.1.0]heptan-3-yl)-3-methylcyclobutyl)-3,3-dimethyl-2-oxo-2,3-dihydro-1H-pyrrolo[3,2-b]pyridin-6-yl)-3-isopropyl-3H-imidazo[4,5-c]pyridin-4-yl)amino)-2-chloro-N-(1-(difluoromethyl)cyclopropyl)-3,4-difluorobenzamide]
IC50 [1]: 0.09 nM

CC(C)n1cnc2cc(-c3cnc4c(c3)N([C@H]3C[C@@](C)(N5C[C@H]6CC[C@@H]5C6)C3)C(=O)C4(C)C)nc(Nc3cc(C(=O)NC4(C(F)F)CC4)c(Cl)c(F)c3F)c21 [Example 263, 5-((6-(1-((1S,3s)-3-((1R,4S)-2-azabicyclo[2.2.1]heptan-2-yl)-3-methylcyclobutyl)-3,3-dimethyl-2-oxo-2,3-dihydro-1H-pyrrolo[3,2-b]pyridin-6-yl)-3-isopropyl-3H-imidazo[4,5-c]pyridin-4-yl)amino)-2-chloro-N-(1-(difluoromethyl)cyclopropyl)-3,4-difluorobenzamide]
IC50 [1]: 0.05 nM

CCNC(=O)c1cc(Nc2nc(-c3cc4c(nc3F)C(C)(C)C(=O)N4[C@H]3C[C@@](C)(N4CCCC5(CC5)C4)C3)cc3ncn(C(C)C)c23)c(F)c(F)c1Cl [Example 270, 2-chloro-N-ethyl-3,4-difluoro-5-((6-(5-fluoro-3,3-dimethyl-1-((1s,3s)-3-methyl-3-(5-azaspiro[2.5]octan-5-yl)cyclobutyl)-2-oxo-2,3-dihydro-1H-pyrrolo[3,2-b]pyridin-6-yl)-3-isopropyl-3H-imidazo[4,5-c]pyridin-4-yl)amino)benzamide]
IC50 [2]: 0.1 nM

Cc1ccc(Nc2nc(-c3ccc4c(c3)N([C@H]3C[C@@H](N5CCCCC5)C3)C(=O)C4(C)C)cc3ncn(C(C)C)c23)cc1C(=O)N[C@@H](C)CF [Example 29]
IC50 [1]: 0.1 nM

CCNC(=O)c1cc(Nc2nc(-c3cnc4c(c3)N([C@H]3C[C@@](C)(N5CCCCCC5)C3)C(=O)C4(C)C)cc3ncn(C(C)C)c23)c(F)c(F)c1Cl [Example 247, 5-((6-(1-((1s,3s)-3-(azepan-1-yl)-3-methylcyclobutyl)-3,3-dimethyl-2-oxo-2,3-dihydro-1H-pyrrolo[3,2-b]pyridin-6-yl)-3-isopropyl-3H-imidazo[4,5-c]pyridin-4-yl)amino)-2-chloro-N-ethyl-3,4-difluorobenzamide]
IC50 [1]: 0.05 nM

CNC(=O)c1cc(Nc2nc(-c3ccc4c(c3)N([C@H]3C[C@@H](N5CCCCC5)C3)C(=O)C43CCN(C(=O)C4(C)CC4)CC3)cc3ncn(C4CC4)c23)ccc1C [Example 150]
IC50 [1]: 0.1 nM

CNC(=O)c1cc(Nc2nc(-c3ccc4c(c3)N([C@H]3C[C@@H](N5CCCCC5)C3)C(=O)C4(C)C)cc3ncn(C(C)C)c23)c(F)cc1F [Example 182]
IC50 [1]: 0.2 nM

CNC(=O)c1cc(Nc2nc(-c3ccc4c(c3)N([C@H]3C[C@@H](N5CCCCC5)C3)C(=O)C43CCN(C4COC4)CC3)cc3ncn(C(C)C)c23)c(F)cc1C [Example 68]
IC50 [1]: 0.2 nM

CCNC(=O)c1cc(Nc2nc(-c3ccc4c(c3)N([C@H]3C[C@@](C)(N5CCCCC5)C3)C(=O)C4(C)C)cc3ncn(C(C)C)c23)c(F)c(F)c1C [Example 239, 5-((6-(3,3-Dimethyl-1-((1s,3s)-3-methyl-3-(piperidin-1-yl)cyclobutyl)-2-oxoindolin-6-yl)-3-isopropyl-3H-imidazo[4,5-c]pyridin-4-yl)amino)-N-ethyl-3,4-difluoro-2-methylbenzamide]
IC50 [1]: 0.04 nM

Cc1cc(F)c(Nc2nc(-c3cnc4c(c3)N([C@H]3C[C@@H](N5CCCCC5)C3)C(=O)C4(C)C)cc3ncn(C(C)C)c23)cc1C(=O)NC1(C(F)F)CC1 [Example 67]
IC50 [1]: 0.3 nM

CNC(=O)c1cc(Nc2nc(-c3ccc4c(c3)N([C@H]3C[C@@H](N5CCCC6(CC6)C5)C3)C(=O)C43CCN(C(C)=O)CC3)cc3ncn(C4CC4)c23)ccc1C [Example 166]
IC50 [1]: 0.1 nM

CC[C@H](C)n1cnc2cc(-c3ccc4c(c3)N([C@H]3C[C@@H](N5CCC[C@@H](F)C5)C3)C(=O)C4(C)C)nc(Nc3cc(C(=O)NC)c(C)cc3F)c21 [Example 113]
IC50 [1]: 0.1 nM

Cc1ccc(Nc2nc(-c3ccc4c(c3)N([C@H]3C[C@@H](N5CCCCC5)C3)C(=O)C4(C)C)cc3ncn(C(C)C)c23)cc1C(=O)N[C@H](C)CF [Example 30]
IC50 [1]: 0.1 nM

CNC(=O)c1cc(Nc2nc(-c3ccc4c(c3)N([C@H]3C[C@@H](N5CCCCC5)C3)C(=O)C43CCN(C(C)=O)CC3)cc3ncn(C(C)C)c23)c(F)cc1C [Example 92]
IC50 [1]: 0.08 nM

Cc1c(C(=O)NC2(C(F)F)CC2)cc(Nc2nc(-c3cnc4c(c3)N([C@H]3C[C@@H](N5C[C@H]6CC[C@@H]5C6)C3)C(=O)C4(C)C)cc3ncn(C(C)C)c23)c(F)c1F [Example 64]
IC50 [1]: 0.1 nM

CNC(=O)c1cc(Nc2nc(-c3ccc4c(c3)N([C@H]3C[C@@H](N5CCC6(C5)CC6(F)F)C3)C(=O)C43CCN(C(C)=O)CC3)cc3ncn(C(C)C)c23)ccc1C (stereo partly drawn) [Example 164]
IC50 [1]: 0.2 nM

Cc1c(C(=O)NC2(C(F)F)CC2)cc(Nc2nc(-c3cnc4c(c3)N([C@H]3C[C@@](C)(N5CCCOCC5)C3)C(=O)C4(C)C)cc3ncn(C(C)C)c23)c(F)c1F [Example 208, N-(1-(Difluoromethyl)cyclopropyl)-5-((6-(3,3-dimethyl-1-((1s,3s)-3-methyl-3-(1,4-oxazepan-4-yl)cyclobutyl)-2-oxo-2,3-dihydro-1H-pyrrolo[3,2-b]pyridin-6-yl)-3-isopropyl-3H-imidazo[4,5-c]pyridin-4-yl)amino)-3,4-difluoro-2-methylbenzamide]
IC50 [1]: 0.09 nM

Cc1cc(F)c(Nc2nc(-c3cnc4c(c3)N([C@H]3C[C@@](C)(N5CCCCC5)C3)C(=O)C4(C)C)cc3ncn(C(C)C)c23)cc1C(=O)NC1(C(F)F)CC1 [Example 216, N-(1-(Difluoromethyl)cyclopropyl)-5-((6-(3,3-dimethyl-1-((1s,3s)-3-methyl-3-(piperidin-1-yl)cyclobutyl)-2-oxo-2,3-dihydro-1H-pyrrolo[3,2-b]pyridin-6-yl)-3-isopropyl-3H-imidazo[4,5-c]pyridin-4-yl)amino)-4-fluoro-2-methylbenzamide]
IC50 [1]: 0.1 nM

CNC(=O)c1cc(Nc2nc(-c3ccc4c(c3)N([C@H]3C[C@@H](N5C6COCC5C6)C3)C(=O)C4(C)C)cc3ncn(C(C)C)c23)ccc1C [Example 6]
IC50 [1]: 0.1 nM

Cc1c(C(=O)NC2(C(F)F)CC2)cc(Nc2nc(-c3ccc4c(c3)N([C@H]3C[C@@H](N5C[C@H]6CC[C@@H]5C6)C3)C(=O)C4(C)C)cc3ncn(C(C)C)c23)c(F)c1F [Example 145, 5-((6-(1-((1S,3s)-3-((1R,4S)-2-azabicyclo[2.2.1]heptan-2-yl)cyclobutyl)-3,3-dimethyl-2-oxoindolin-6-yl)-3-isopropyl-3H-imidazo[4,5-c]pyridin-4-yl)amino)-N-(1-(difluoromethyl)cyclopropyl)-3,4-difluoro-2-methylbenzamide]
IC50 [1]: 0.07 nM

CNC(=O)c1cc(Nc2nc(-c3ccc4c(c3)N([C@H]3C[C@@H](N5CCCCC5)C3)C(=O)C4(C)C)cc3ncn(C(C)C)c23)ccc1OC(F)(F)F [Example 140]
IC50 [1]: 0.3 nM

CNC(=O)c1cc(Nc2nc(-c3ccc4c(c3)N([C@H]3C[C@@H](N5CCCCC5)C3)C(=O)C4(C)C)cc3ncn(C4CC4)c23)ccc1C [Example 79]
IC50 [1]: 0.2 nM
